The text below walks through data of ChEMBL document CHEMBL2034948, “The design, synthesis, and biological evaluation of PIM kinase inhibitors” (Bioorg Med Chem Lett, 2012).

Each structure is given as a SMILES string.

What all share (type): ADME, organism-based
Series [1] is described as follows: Plasma concentration in mouse at 100 mg/kg, po after 1 hr. On the set-up: dose 100 mg/kg, route oral.
Series [2] is described as follows: Plasma concentration in mouse at 100 mg/kg, po after 4 hrs. Details: dose 100 mg/kg, route oral.
Series [3] is described as follows: Clearance in rat at 5 mg/kg. As to conditions: in vivo. On the set-up: dose 5 mg/kg.
Series [4] is described as follows: Volume of distribution in rat at 5 mg/kg. Details: dose 5 mg/kg. The following applies: in vivo.
Series [5] is described as follows: Half life in rat at 5 mg/kg, iv. On the set-up: dose 5 mg/kg, route intravenous. As to conditions: in vivo.
A short description of series [6]: Half life in rat at 5 mg/kg, po. Details: dose 5 mg/kg, route oral. As to conditions: in vivo.
Series [7] can be described thus: Oral bioavailability in rat at 5 mg/kg. The following applies: in vivo.
Series [8] in a line: Cmax in rat at 5 mg/kg, iv. On the set-up: dose 5 mg/kg, route intravenous. The following applies: in vivo.
The nature of series [9]: Cmax in rat at 5 mg/kg, po. As to conditions: in vivo. On the set-up: dose 5 mg/kg, route oral.
In series [10] the test system is Rattus norvegicus. In words: Dose normalised AUC in rat at 5 mg/kg, iv. Details: dose 5 mg/kg, route intravenous. The following applies: in vivo.
Series [11] concerns Rattus norvegicus. In words: Dose normalised AUC in rat at 5 mg/kg, po. On the set-up: dose 5 mg/kg, route oral. As to conditions: in vivo.
Series [12] can be described thus: Clearance in rat at […]. Details: dose 2.5 mg/kg. The following applies: in vivo.
The nature of series [13]: Volume of distribution in rat at […]. Details: dose 2.5 mg/kg. As to conditions: in vivo.
Series [14] in a line: Half life in rat at […], iv. Details: dose 2.5 mg/kg, route intravenous. The following applies: in vivo.
Series [15] in a line: Half life in rat at […], po. On the set-up: dose 2.5 mg/kg, route oral. As to conditions: in vivo.
The nature of series [16]: Oral bioavailability in rat at […]. The following applies: in vivo.
Series [17] in a line: Cmax in rat at […], iv. As to conditions: in vivo. On the set-up: dose 2.5 mg/kg, route intravenous.
The nature of series [18]: Cmax in rat at […], po. Details: dose 2.5 mg/kg, route oral. The following applies: in vivo.
Series [19] concerns Rattus norvegicus. In words: Dose normalised AUC in rat at […], iv. Details: dose 2.5 mg/kg, route intravenous. As to conditions: in vivo.
The test system of series [20] is Rattus norvegicus. In words: Dose normalised AUC in rat at […], po. Details: dose 2.5 mg/kg, route oral. The following applies: in vivo.

Usually clearance stands for a measure of how efficiently the substance is removed, as volume per time. A high value points to a high capacity for elimination. The Vd is the apparent volume that relates the amount in the body to the concentration in plasma or blood. Read a high Vd as extensive tissue distribution. Usually half-life stands for the time needed for the level to fall by half in the phase considered. One may read the bioavailability as the share of a dose that reaches the circulation, judged against a reference dose that is usually intravenous. The Cmax is the highest concentration seen after dosing. `O=c1[nH]c(CN2CC[C@@H](O)C2)nc2c1oc1ccc(Br)cc12`: the concentration at 1 h in series [1] stood at 93 µM. This compound registered a concentration at 4 h in series [2] of 35 µM. Further, the clearance in series [3] is 13.2 mL/min/kg. In addition, in [4], the Vd amounted to 2.3 L/kg. The half-life in series [5] was 2.7 h; in series [6], 4.7 h. The bioavailability in series [7] is 79%. In addition, the results for the Cmax in [8] and in series [9] were 7.6 µM and 3.1 µM, respectively. For the same compound, the figures for the AUC/dose in the series on Rattus norvegicus [10] and in the series with Rattus norvegicus [11] were 3.8 µM·kg·h/mg and 2.9 µM·kg·h/mg, respectively.
The compound `N[C@@H]1CCN(Cc2nc3c(oc4ccc(Br)cc43)c(=O)[nH]2)C1` returned a concentration at 1 h in [1] of 6 µM. Besides, the concentration at 4 h in [2] turned out to be 5 µM. Further, the clearance in series [3] is 56.2 mL/min/kg. In series [4], this compound returned a Vd of 6.2 L/kg. In addition, the half-life in [5] was 1.4 h; in series [6], 1.6 h. Also, the bioavailability in series [7] amounted to 13%. Further, the Cmax in [8] was determined as 1.8 µM; in series [9], 0.1 µM. Besides, the AUC/dose is 0.8 µM·kg·h/mg in the series on Rattus norvegicus [10] and 0.1 µM·kg·h/mg in the series on Rattus norvegicus [11].
Consider `O=c1[nH]c(CN2CCC2)nc2c1oc1ccc(Br)cc12`, for which the concentration at 1 h in [1] came out at 13 µM. Besides, the concentration at 4 h in [2] was 5 µM. For the same compound, in [12], the clearance is 30.6 mL/min/kg. Also, the Vd in [13] amounted to 3.8 L/kg. Further, the half-life in [14] and in series [15] was 1 h throughout. Further, the bioavailability in series [16] amounted to 77%. Moreover, the Cmax came out at 1.8 µM in series [17] and 0.8 µM in series [18]. In addition, the AUC/dose in the series on Rattus norvegicus [19] was determined as 1.7 µM·kg·h/mg; in the series on Rattus norvegicus [20], 1.3 µM·kg·h/mg.
Turning to `CN1C[C@@H]2C[C@H]1CN2Cc1nc2c(oc3ccc(Br)cc32)c(=O)[nH]1`, the concentration at 1 h in series [1] was 11 µM. This compound registered a concentration at 4 h in series [2] of 7 µM. The compound also showed a clearance in series [3] of 34.1 mL/min/kg. In series [4], the Vd is 7.1 L/kg. The half-life in series [5] and in [6] was 2.6 h in each case. This compound also registered a bioavailability in series [7] of 86%. Also, the Cmax in series [8] is 1.5 µM; in series [9], 0.4 µM. The AUC/dose in the series with Rattus norvegicus [10] amounted to 1.2 µM·kg·h/mg; in the series on Rattus norvegicus [11] it was 0.9 µM·kg·h/mg.
`O=c1[nH]c(CN2CC(O)C2)nc2c1oc1ccc(Br)cc12` displayed a concentration at 1 h in series [1] of 78 µM. Besides, the concentration at 4 h in series [2] turned out to be 22 µM. This compound also showed a clearance in series [12] of 13.5 mL/min/kg. In series [13], this compound came in with a Vd of 2.4 L/kg. In addition, the values for the half-life in series [14] and in [15] were 8.4 h and 3.7 h, respectively. This compound showed a bioavailability in [16] of 56%. Also, the Cmax in series [17] was 3.5 µM; in series [18] it was 1.2 µM. Besides, the AUC/dose with Rattus norvegicus [19] was 2.6 µM·kg·h/mg; in the series on Rattus norvegicus [20], 1.5 µM·kg·h/mg.
